How the values were obtained:
[1] = test system: wheat seedlings; assay: Phytotoxicity (percentage of leaf necrosis) on wheat seedlings; type: in vivo; settings: for Phytotoxicity % N.F. (leaf necrosis): wheat seedlings, scale 0-100
Description: (§1) Leaves of wheat plants of the Salgemma variety, grown in pots in a conditioned environment at 20° C. and 70% of Relative Humidity (RH) were treated by spraying both sides of the leaves with the compound under examination (see Table 4 hereunder) dispersed in a hydroacetonic solution at 20% by volume of acetone.
At the same time, an evaluation of the phytotoxicity was effected (percentage of leaf necrosis) induced on the wheat seedlings by the application of the products: in this case the evaluation scale ranges from 0 (completely healthy plant) to 100 (completely necrotic plant).

[2] = test system: Sphaerotheca Fuliginea; assay: Preventive fungicidal activity (7 days) against Sphaerotheca Fuliginea on cucumbers; type: in vivo
Description: Determination of the preventive fungicidal activity (7 days) against Sphaerotheca Fuliginea on cucumbers.
(§2) Cucumber plants cv. Lungo of China, grown in pots in a conditioned environment were treated by spraying both sides with the products under examination in a hydroacetonic solution with 20% by volume of acetone (vol./vol.).
7 days after the treatment, the plants were sprayed on the upper side with an aqueous suspension of spores of Sphaerotheca Fuliginea (200,000 spores/cc); they were then re-transferred to the conditioned environment.
At the end of the period of incubation (8 days), the evaluation of the intensity of the infection was finally effected.
(§3) The fungicidal activity is expressed as a percentage of the reduction, with respect to non-treated seedlings (comparison), in the area of the leaf affected by the disease (100=full effectiveness; 0=zero effectiveness).

[3] = test system: Puccinia Recondita; assay: Preventive fungicidal activity (5 days) against Puccinia Recondita on wheat; type: in vivo; settings: for Activity P5 NT (reduction of leaf area affected, parts developed during the test) / Activity P5 T (reduction of leaf area affected, parts treated directly) / effectiveness in containing the disease (in words): wheat; for Activity P5 NT (reduction of leaf area affected, parts developed during the test): non-treated parts (NT); for effectiveness in containing the disease (in words): summary of Table 4
Description: Determination of the preventive fungicidal activity (5 days) against Puccinia Recondita on wheat.
as §1
After remaining 5 days in a conditioned environment, the plants were sprayed on both sides of the leaves with an aqueous suspension of conidia of Puccinia Recondita (2 mg of inoculum per 1 ml of solution for infection).
After spraying, the plants were kept in a humidity-saturated environment at a temperature ranging from 18 to 24° C. for the incubation period of the fungus (1 day).
At the end of this period, the plants were put in a greenhouse with a relative humidity (RH) of 70% and at a temperature of 18-24° C. for 14 days.
At the end of this period, the external symptoms of the pathogen appeared and it was therefore possible to proceed with the visual evaluation of the intensity of the infection, both on the parts treated directly with the products (T) and on the parts developed during the implementation of the test (NT).
as §3

[4] = test system: cucumber seedlings; assay: Phytotoxicity (percentage of leaf necrosis) on cucumber seedlings; type: in vivo; settings: scale 0-100
Description: as §2
At the same time, an evaluation of the phytotoxicity was effected (percentage of leaf necrosis) induced on the cucumber seedlings by the application of the products: in this case the evaluation scale ranges from 0 (completely healthy plant) to 100 (completely necrotic plant).

[5] = test system: Uromyces Appendiculatus; assay: Preventive fungicidal activity (5 days) against Uromyces Appendiculatus on beans; type: in vivo
Description: Determination of the preventive fungicidal activity (5 days) against Uromyces Appendiculatus on beans.
(§4) Bean plants cv. Borlotto of Vigevano, grown in pots in a conditioned environment, were treated by spraying both sides with the products under examination in a hydroacetonic solution with 20% by volume of acetone (vol./vol.).
After remaining 5 days in a conditioned environment at 23° C. and 70% of relative humidity, the plants were sprayed on the lower side with an aqueous suspension of spores of Uromyces Appendiculatus (200,000 spores/cc); after remaining 24 hours in a humidity-saturated environment, they were re-transferred to the conditioned environment.
After this period, the external symptoms of the pathogen appeared and it was therefore possible to proceed with the visual evaluation of the intensity of the infection.
as §3

[6] = test system: bean seedlings; assay: Phytotoxicity (percentage of leaf necrosis) on bean seedlings; type: in vivo; settings: scale 0-100
Description: as §4
At the same time, an evaluation of the phytotoxicity was effected (percentage of leaf necrosis) induced on the bean seedlings by the application of the products: in this case the evaluation scale ranges from 0 (completely healthy plant) to 100 (completely necrotic plant).

[7] = Accelerated stability test of 5% solutions in commercial solvents (54° C., 2 weeks, HPLC); type: physicochemical
Description: Stability tests of the compositions containing compounds having formula (I) in a solvent
In order to evaluate the chemical stability of the compounds having Formula (I) in a solvent, 5% solutions were prepared, containing 250 mg of compounds Nr. 1, 17, 39 and 40, dissolved in 4.75 g of various commercial solvents used for the preparation of emulsifiable concentrates.
The resulting solutions were put in an oven at 54° C. for 2 weeks (according to Cipac MT 46.1 update 2012) and then analyzed by means of HPLC in order to verify the concentration of the active ingredient contained therein. The percentage of degradation of the compound having Formula (I) was therefore obtained, after the accelerated stability test.

[8] = solvent ADMA 10 (N,N-dimethyldecanamide)
[9] = solvent Alkamuls T/20 (ethoxylated sorbitan monolaurate)
[10] = solvent CME (rapeseed methyl ester)
[11] = solvent FMPC (N-formylmorpholine and propylene carbonate)
[12] = solvent Green 25 (dimethylsulfoxide, acetophenone, 2-ethylhexyl acetate)
[13] = solvent Purasolv BL (butyl lactate)
[14] = solvent RPDE (dimethyl glutarate, dimethyl succinate, dimethyl adipate)

| Molecule | Activity P5 ([2]; 30 ppm) | Activity P5 ([2]; 125 ppm) | Activity P5 NT (reduction of leaf area affected, parts developed during the test) ([3]; 125 ppm) | Activity P5 T (reduction of leaf area affected, parts treated directly) ([3]; 125 ppm) | Activity P5 NT (reduction of leaf area affected, parts developed during the test) ([3]; 250 ppm) | Activity P5 T (reduction of leaf area affected, parts treated directly) ([3]; 250 ppm) | effectiveness in containing the disease (in words) [3] | Activity P5 ([5]; 30 ppm) | Activity P5 ([5]; 125 ppm) | Phytotoxicity % N.F. (leaf necrosis) ([1]; 125 ppm) | Phytotoxicity % N.F. (leaf necrosis) ([1]; 250 ppm) | symptoms of phytotoxicity on the plant (in words) ([1]; wheat, summary of Table 4) | Phytotoxicity % N.F. (leaf necrosis) ([6]; 30 ppm) | Phytotoxicity % N.F. (leaf necrosis) ([6]; 125 ppm) | percentage of degradation [7, 8] | percentage of degradation [7, 9] | percentage of degradation [7, 10] | percentage of degradation [7, 11] | percentage of degradation [7, 12] | percentage of degradation ([7]; solvent Propylene carbonate) | also measured |
| --- | --- | --- | --- | --- | --- | --- | --- | --- | --- | --- | --- | --- | --- | --- | --- | --- | --- | --- | --- | --- | --- |
| CCN(C)C=Nc1cc(C)c(SCc2cccc(C(F)(F)F)c2)nc1C [Compound 3, N-ethyl-N-methyl-N′-2,5-dimethyl-6-{[3(trifluoromethyl)benzyl]thio}pyridyl-3-formamidine] | 98% | 100% | 93% | 100% | 98% | 100% | effective in containing the disease | 100% | 100% | – | – | – | – | – | – | – | – | – | – | – | symptoms of phytotoxicity on the plant (in words) ([1]; in vivo): do not show any symptoms of phytotoxicity; Phytotoxicity % N.F. (leaf necrosis) ([4]; 30 ppm): 1 % N.F.; Phytotoxicity % N.F. (leaf necrosis) ([4]; 125 ppm): 3 % N.F. |
| CCN(C)C=Nc1cc(C)c(SCc2c(F)cccc2F)nc1C [Compound 39] | – | – | 88% | 95% | 97% | 98% | effective in containing the disease | 100% | 100% | 0 % N.F. | 0 % N.F. | do not show any symptoms of phytotoxicity | 0 % N.F. | 0 % N.F. | 0% | 79.78% | 17.31% | 1.53% | 1.84% | 0.61% | percentage of degradation [7, 13]: 100%; percentage of degradation [7, 14]: 1.13% |
| CCN(C)C=Nc1cc(Br)c(OCCC(C)C)nc1C [CR1, N-ethyl-N-methyl-N′-[5-bromo-2-methyl-6-(3-methyl-butyloxy)-3-pyridyl]-formamidine, reference compound] | – | – | 20% | 60% | 50% | 80% | – | – | – | 5 % N.F. | 10 % N.F. | – | – | – | – | – | – | – | – | – | – |
| CCN(C)C=Nc1cc(C)c(SCC2CCCCC2)nc1C [Compound 40] | – | – | 55% | 80% | 70% | 90% | effective in containing the disease | 100% | 100% | 0 % N.F. | 0 % N.F. | do not show any symptoms of phytotoxicity | 0 % N.F. | 0 % N.F. | 1.09% | 81.02% | 12.76% | 0% | 2.82% | 0% | percentage of degradation [7, 13]: 100%; percentage of degradation [7, 14]: 1.71% |
| CCN(C)C=Nc1cc(Br)c(SCCC(C)C)nc1C [Compound 5] | – | – | 45% | 85% | 65% | 100% | effective in containing the disease | – | – | 0 % N.F. | 0 % N.F. | do not show any symptoms of phytotoxicity | – | – | – | – | – | – | – | – | activity compared with CR1 (in words) ([3]; also at low dosages (125 ppm)): more active |
| CCN(C)C=Nc1cc(C)c(SCCC(C)C)nc1C [Compound 2] | 99% | 100% | 85% | 100% | 95% | 100% | effective in containing the disease | 100% | 100% | 0 % N.F. | 0 % N.F. | do not show any symptoms of phytotoxicity | 0 % N.F. | 0 % N.F. | – | – | – | – | – | – | Phytotoxicity % N.F. (leaf necrosis) ([4]; 30 ppm): 0 % N.F.; Phytotoxicity % N.F. (leaf necrosis) ([4]; 125 ppm): 2 % N.F. |
| CCCCCCSc1nc(C)c(N=CN(C)CC)cc1C [Compound 17] | – | – | 55% | 95% | 65% | 98% | effective in containing the disease | 100% | 100% | 0 % N.F. | 0 % N.F. | do not show any symptoms of phytotoxicity | 0 % N.F. | 0 % N.F. | 1.57% | 74.78% | 16% | 0.79% | 2.96% | 0% | percentage of degradation [7, 13]: 100%; percentage of degradation [7, 14]: 1.93% |
| N-ethyl-N-methyl-N′-[5-bromo-2-methyl-6-[(4-methylpentyloxy]pyridyl-3-formamidine [CR2, reference compound] | 75% | 85% | – | – | – | – | – | 80% | 90% | – | – | – | – | – | – | – | – | – | – | – | – |
